Data: PMC9274761, “Effects of Structurally Different HDAC Inhibitors against Trypanosoma cruzi, Leishmania, and Schistosoma mansoni” (ACS Infectious Diseases, 2022)

Experiments:
HDAC1 = HDAC1 (Homo sapiens, UniProt Q13547); assay: HDAC1 protease-coupled fluorescence (AMC) inhibition assay; assay type: biochemical; conditions: hr enzyme, 10-dose, 3-fold dilution from 50 μM (3: from 300 μM); read-out: IC50 against HDAC1
From the text: (§1) The new hydroxamates 2 and 6 were screened and profiled via a protease-coupled assay in which the quantification of HDAC enzyme activity is based on the formation of a free fluorescent group, the 7-amino-4-methyl coumarin (AMC).[42] […] After deacetylation by HDACs, the de(trifluoro)acetylated AMC–peptides were sensitive toward lysine peptidase and free fluorogenic AMC was generated and quantified.[42]
(§2) To gain insights into its inhibition profile for human HDACs, we tested 3 against hrHDACs 1–6 and 8 following the above procedure (Table 1).
(§3) Individual IC50 values for each HDAC isozyme were measured with the homogeneous fluorescence release HDAC assay.[42]

HDAC2 = HDAC2 (Homo sapiens, UniProt Q92769); assay: HDAC2 protease-coupled fluorescence (AMC) inhibition assay; assay type: biochemical; conditions: hr enzyme, 10-dose, 3-fold dilution from 50 μM (3: from 300 μM); read-out: IC50 against HDAC2
From the text: as §1, §2, §3

HDAC3 = HDAC3 (Homo sapiens, UniProt O15379); assay: HDAC3 protease-coupled fluorescence (AMC) inhibition assay; assay type: biochemical; conditions: hr enzyme, 10-dose, 3-fold dilution from 50 μM (3: from 300 μM); read-out: IC50 against HDAC3
From the text: as §1, §2, §3

HDAC4 = HDAC4 (Homo sapiens, UniProt P56524); assay: HDAC4 protease-coupled fluorescence (AMC) inhibition assay; assay type: biochemical; conditions: hr enzyme, class IIa substrate Boc-Lys(trifluoroacetyl)-AMC; read-out: IC50 against HDAC4
From the text: as §1, §2, §3

HDAC5 = HDAC5 (Homo sapiens, UniProt Q9UQL6); assay: HDAC5 protease-coupled fluorescence (AMC) inhibition assay; assay type: biochemical; conditions: hr enzyme, class IIa substrate Boc-Lys(trifluoroacetyl)-AMC; read-out: IC50 against HDAC5
From the text: as §1, §2, §3

HDAC6 = biological target: T1, HDAC6 (Homo sapiens, UniProt Q9UBN7); assay: HDAC6 protease-coupled fluorescence (AMC) inhibition assay; assay type: biochemical; conditions: hr enzyme, 10-dose, 3-fold dilution from 50 μM (3: from 300 μM); read-out: IC50 against HDAC6
T1 sequence (Q9UBN7 1-1215): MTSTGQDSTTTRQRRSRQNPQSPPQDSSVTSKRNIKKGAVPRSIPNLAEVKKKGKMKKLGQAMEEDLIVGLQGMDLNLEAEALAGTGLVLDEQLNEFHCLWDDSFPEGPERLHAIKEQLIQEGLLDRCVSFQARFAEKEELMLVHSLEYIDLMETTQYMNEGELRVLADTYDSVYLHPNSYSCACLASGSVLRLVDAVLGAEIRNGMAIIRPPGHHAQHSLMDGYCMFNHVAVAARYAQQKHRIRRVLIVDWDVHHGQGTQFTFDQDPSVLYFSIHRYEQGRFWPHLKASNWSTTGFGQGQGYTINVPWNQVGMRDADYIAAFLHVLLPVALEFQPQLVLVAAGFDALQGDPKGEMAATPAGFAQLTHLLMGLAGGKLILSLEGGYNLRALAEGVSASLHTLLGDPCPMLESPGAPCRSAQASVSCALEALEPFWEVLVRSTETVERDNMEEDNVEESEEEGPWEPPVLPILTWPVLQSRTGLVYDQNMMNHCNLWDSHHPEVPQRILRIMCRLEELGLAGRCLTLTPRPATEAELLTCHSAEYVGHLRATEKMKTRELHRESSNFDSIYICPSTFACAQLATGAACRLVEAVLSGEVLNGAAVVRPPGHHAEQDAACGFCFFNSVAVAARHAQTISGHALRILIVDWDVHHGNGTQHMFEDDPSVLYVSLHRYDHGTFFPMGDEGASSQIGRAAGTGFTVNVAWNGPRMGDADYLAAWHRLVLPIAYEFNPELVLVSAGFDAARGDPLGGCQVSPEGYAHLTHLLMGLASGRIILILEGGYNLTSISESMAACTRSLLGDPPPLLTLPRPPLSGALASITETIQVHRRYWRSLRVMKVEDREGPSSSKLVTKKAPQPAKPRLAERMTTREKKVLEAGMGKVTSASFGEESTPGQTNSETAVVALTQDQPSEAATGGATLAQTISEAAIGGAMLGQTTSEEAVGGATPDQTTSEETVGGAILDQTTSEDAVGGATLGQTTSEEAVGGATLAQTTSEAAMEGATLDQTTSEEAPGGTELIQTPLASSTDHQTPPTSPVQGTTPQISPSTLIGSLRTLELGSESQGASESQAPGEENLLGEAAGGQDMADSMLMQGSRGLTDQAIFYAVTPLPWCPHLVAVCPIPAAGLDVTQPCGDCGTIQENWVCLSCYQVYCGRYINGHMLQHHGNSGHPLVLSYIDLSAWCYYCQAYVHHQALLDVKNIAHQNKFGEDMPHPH
From the text: as §1, §2, §3

HDAC8 = biological target: T2, HDAC8 (Homo sapiens, UniProt Q9BY41); assay: HDAC8 protease-coupled fluorescence (AMC) inhibition assay; assay type: biochemical; conditions: hr enzyme, substrate RHK(Ac)K(Ac)AMC; read-out: IC50 against HDAC8
T2 sequence (Q9BY41 1-377): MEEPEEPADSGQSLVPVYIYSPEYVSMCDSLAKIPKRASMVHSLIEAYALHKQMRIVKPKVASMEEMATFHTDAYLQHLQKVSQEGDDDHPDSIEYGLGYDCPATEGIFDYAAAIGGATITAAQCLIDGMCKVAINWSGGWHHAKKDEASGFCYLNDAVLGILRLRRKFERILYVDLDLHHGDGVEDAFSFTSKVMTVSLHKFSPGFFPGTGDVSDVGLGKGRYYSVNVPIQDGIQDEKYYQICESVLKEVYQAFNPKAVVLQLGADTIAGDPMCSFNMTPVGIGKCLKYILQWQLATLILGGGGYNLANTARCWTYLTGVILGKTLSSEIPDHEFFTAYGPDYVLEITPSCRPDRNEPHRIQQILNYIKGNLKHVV
From the text: as §1, §2, §3

[1] = test system: T. cruzi amastigotes and trypomastigotes; assay: T. cruzi infection assay in L929 cells (beta-galactosidase Tulahuen strain); assay type: cell-based, Trypanosoma cruzi
[2] = test system: L. amazonensis promastigotes; assay: Resazurin reduction assay, L. amazonensis promastigotes; assay type: cell-based; conditions: Leishmania amazonensis; 20 μM; read-out: percentage of inhibition, L. amazonensis promastigotes
[3] = test system: L. donovani promastigotes; assay: Resazurin reduction assay, L. donovani promastigotes; assay type: cell-based; conditions: Leishmania donovani, read-out: percentage of inhibition, L. donovani promastigotes
[4] = test system: L. donovani axenic amastigotes; assay: Resazurin reduction assay, L. donovani axenic amastigotes; assay type: cell-based; conditions: Leishmania donovani, read-out: percentage of inhibition, L. donovani axenic amastigotes
[5] = test system: newly transformed schistosomula (NTS); assay: Phenotypic screening on newly transformed schistosomula (NTS); assay type: cell-based, Schistosoma mansoni
in vitro = conditions: mouse, noninfected L929 fibroblast cells
Leishmania = test system: Leishmania; parameters: method as in PMID 28107750; conditions: 10 and 20 μM; cited from earlier work
[6] = test system: S. mansoni schistosomula, adult worm pairs, and egg production; parameters: method as in PMID 28107750; conditions: 10 μM; cited from earlier work

Sequence of HDAC2 (Q92769 whole entry): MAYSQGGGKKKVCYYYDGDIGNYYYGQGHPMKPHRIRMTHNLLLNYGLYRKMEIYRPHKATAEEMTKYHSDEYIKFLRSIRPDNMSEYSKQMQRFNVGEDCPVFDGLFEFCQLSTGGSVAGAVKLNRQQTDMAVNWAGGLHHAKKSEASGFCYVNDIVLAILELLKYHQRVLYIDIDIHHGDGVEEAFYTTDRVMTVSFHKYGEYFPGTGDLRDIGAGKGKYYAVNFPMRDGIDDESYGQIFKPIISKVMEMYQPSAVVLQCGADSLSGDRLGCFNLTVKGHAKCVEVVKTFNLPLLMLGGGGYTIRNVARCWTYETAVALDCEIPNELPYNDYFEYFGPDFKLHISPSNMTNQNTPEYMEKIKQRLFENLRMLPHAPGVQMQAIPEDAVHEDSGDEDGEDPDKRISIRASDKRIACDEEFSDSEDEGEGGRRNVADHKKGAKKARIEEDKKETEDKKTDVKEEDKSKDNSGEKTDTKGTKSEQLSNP
Sequence of HDAC4 (P56524 whole entry): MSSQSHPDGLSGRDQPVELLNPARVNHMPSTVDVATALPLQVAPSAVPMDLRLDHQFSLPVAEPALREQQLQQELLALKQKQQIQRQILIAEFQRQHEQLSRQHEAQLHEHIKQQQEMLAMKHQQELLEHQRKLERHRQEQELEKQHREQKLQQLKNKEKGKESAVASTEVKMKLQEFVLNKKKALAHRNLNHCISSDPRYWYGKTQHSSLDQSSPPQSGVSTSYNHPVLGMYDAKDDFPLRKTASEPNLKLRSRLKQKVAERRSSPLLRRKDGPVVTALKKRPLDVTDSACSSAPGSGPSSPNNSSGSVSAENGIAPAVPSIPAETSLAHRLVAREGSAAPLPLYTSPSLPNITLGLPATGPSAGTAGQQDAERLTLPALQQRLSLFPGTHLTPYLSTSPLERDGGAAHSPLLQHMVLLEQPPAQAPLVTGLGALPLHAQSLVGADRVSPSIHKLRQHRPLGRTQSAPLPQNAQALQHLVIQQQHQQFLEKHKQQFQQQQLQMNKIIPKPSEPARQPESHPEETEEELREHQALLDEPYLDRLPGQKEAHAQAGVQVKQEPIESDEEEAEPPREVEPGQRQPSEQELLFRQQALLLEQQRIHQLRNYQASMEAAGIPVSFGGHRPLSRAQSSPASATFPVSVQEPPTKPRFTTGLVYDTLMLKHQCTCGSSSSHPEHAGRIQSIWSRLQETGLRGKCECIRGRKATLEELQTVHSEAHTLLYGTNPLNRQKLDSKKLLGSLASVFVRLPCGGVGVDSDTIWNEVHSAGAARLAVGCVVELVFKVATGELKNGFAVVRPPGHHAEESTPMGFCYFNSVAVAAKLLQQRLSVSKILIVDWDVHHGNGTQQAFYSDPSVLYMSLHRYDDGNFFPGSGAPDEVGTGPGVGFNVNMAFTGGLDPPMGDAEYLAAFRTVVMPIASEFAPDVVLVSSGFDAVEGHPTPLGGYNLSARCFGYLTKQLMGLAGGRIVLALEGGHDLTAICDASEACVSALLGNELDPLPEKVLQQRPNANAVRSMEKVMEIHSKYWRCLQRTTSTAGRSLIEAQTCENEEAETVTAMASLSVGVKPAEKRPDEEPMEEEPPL
Sequence of HDAC3 (O15379 whole entry): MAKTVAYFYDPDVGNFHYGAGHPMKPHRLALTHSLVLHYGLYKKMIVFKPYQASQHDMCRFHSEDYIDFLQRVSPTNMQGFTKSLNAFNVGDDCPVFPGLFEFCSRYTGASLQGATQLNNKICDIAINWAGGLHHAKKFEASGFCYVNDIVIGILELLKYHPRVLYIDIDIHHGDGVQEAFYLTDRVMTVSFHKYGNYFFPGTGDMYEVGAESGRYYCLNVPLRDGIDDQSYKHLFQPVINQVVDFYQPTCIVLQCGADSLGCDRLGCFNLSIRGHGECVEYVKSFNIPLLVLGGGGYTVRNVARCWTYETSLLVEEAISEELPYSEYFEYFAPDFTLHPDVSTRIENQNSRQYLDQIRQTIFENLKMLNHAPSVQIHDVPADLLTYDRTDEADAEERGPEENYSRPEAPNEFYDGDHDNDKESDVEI
Sequence of HDAC3 (Q9Y618 395-489 partner limits assumed): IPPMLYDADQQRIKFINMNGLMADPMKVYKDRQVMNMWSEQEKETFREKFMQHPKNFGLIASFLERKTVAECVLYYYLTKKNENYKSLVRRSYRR
Sequence of HDAC5 (Q9UQL6 whole entry): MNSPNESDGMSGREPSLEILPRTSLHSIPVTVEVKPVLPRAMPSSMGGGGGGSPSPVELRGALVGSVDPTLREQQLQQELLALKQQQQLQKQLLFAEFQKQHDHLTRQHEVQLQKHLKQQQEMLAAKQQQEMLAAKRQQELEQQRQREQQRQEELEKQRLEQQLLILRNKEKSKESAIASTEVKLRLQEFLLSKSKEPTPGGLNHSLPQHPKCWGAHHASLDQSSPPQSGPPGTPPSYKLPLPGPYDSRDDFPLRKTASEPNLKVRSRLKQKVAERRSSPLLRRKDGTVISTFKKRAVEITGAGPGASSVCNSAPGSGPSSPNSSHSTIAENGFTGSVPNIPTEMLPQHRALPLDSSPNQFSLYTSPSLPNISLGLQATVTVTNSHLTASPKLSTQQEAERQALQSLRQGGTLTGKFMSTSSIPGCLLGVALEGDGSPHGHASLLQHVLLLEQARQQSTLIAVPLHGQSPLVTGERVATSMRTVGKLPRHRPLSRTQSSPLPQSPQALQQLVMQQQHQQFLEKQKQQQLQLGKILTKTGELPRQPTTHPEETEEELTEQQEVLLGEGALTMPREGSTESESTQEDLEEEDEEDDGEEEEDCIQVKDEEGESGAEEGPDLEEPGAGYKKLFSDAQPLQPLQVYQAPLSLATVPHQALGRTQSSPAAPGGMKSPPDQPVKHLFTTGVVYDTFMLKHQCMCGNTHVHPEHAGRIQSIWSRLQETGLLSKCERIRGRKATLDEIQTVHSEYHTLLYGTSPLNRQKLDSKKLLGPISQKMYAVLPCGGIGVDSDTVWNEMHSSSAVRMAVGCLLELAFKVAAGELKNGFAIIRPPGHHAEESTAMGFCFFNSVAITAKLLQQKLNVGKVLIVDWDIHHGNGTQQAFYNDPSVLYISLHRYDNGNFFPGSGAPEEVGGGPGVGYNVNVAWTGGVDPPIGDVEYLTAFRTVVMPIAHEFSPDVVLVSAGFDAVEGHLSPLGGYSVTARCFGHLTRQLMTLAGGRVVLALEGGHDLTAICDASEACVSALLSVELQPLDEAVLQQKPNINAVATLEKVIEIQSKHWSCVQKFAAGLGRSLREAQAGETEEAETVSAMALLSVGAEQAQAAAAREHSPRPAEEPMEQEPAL
Sequence of HDAC1 (Q13547 whole entry): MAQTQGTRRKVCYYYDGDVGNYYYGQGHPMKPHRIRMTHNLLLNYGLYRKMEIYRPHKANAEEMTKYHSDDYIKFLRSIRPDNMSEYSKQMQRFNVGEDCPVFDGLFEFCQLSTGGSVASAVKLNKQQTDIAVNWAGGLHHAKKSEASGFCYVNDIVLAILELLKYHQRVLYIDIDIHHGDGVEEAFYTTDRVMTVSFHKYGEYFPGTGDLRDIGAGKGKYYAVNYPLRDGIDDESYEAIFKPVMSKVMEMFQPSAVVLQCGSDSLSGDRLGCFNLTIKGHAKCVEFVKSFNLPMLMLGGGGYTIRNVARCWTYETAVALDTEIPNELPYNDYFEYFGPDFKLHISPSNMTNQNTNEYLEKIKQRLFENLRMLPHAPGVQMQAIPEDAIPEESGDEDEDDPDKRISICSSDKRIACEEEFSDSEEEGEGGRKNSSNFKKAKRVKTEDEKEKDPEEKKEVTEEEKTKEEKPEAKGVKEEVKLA

For `Cn1c(/C=C/C(=O)NO)ccc1/C=C/C(=O)c1cccc(Cl)c1` [Compound 3], which IC50 (HDAC1) is on record?
Its IC50 is > 300 µM.

What about the IC50 (HDAC2) of the same compound?
The IC50 was 257 µM.

And the IC50 (HDAC3)?
Its IC50 is > 300 µM.

And the IC50 (HDAC4)?
Its IC50 is 132 µM.

What about the IC50 (HDAC5) of the same compound?
The IC50 was 131 µM.

And the IC50 (HDAC6)?
The IC50 was 6.1 µM.

And the IC50 (HDAC8)?
Its IC50 is 2 µM.

What about the “percentage of T. cruzi growth inhibition” value ([1]; 80 μM, infected L929 cells, 96 h, toxic = L929 death) of the same compound?
The value was “toxic”.

What about the “percentage of T. cruzi growth inhibition” value ([1]; 160 μM, infected L929 cells, 96 h, toxic = L929 death) of the same compound?
Its value is “toxic”.

What about the “selectivity index (SI), CC50/EC50” value ([1]; L929 CC50 / T. cruzi EC50) of the same compound?
Its value is 5.7.

What about the EC50 ([1]; Trypanosoma cruzi, L929, 96 h, infected L929 cells, 96 h, mean ± SD, read-out: EC50, growth of T. cruzi amastigotes and trypomastigotes) of the same compound?
The EC50 was 7 ± 0.2 µM.

What about the inhibition at 1.25 µM ([1]; Trypanosoma cruzi, 1.25 μM, infected L929 cells, 96 h, read-out: percentage of T. cruzi growth inhibition) of the same compound?
Its inhibition at 1.25 µM is 0%.

What about the inhibition at 2.5 µM ([1]; Trypanosoma cruzi, 2.5 μM, infected L929 cells, 96 h, toxic = L929 death, read-out: percentage of T. cruzi growth inhibition) of the same compound?
Its inhibition at 2.5 µM is 2%.

And the inhibition at 5 µM ([1]; Trypanosoma cruzi, 5 μM, infected L929 cells, 96 h, toxic = L929 death, read-out: percentage of T. cruzi growth inhibition)?
Its inhibition at 5 µM is 39%.

And the inhibition at 10 µM ([1]; Trypanosoma cruzi, 10 μM, infected L929 cells, 96 h, toxic = L929 death, read-out: percentage of T. cruzi growth inhibition)?
Its inhibition at 10 µM is 67%.

What about the inhibition at 20 µM ([1]; Trypanosoma cruzi, 20 μM, infected L929 cells, 96 h, toxic = L929 death, read-out: percentage of T. cruzi growth inhibition) of the same compound?
The inhibition at 20 µM was 87%.

And the inhibition at 40 µM ([1]; Trypanosoma cruzi, 40 μM, infected L929 cells, 96 h, toxic = L929 death, read-out: percentage of T. cruzi growth inhibition)?
Its inhibition at 40 µM is 90%.

What about the inhibition at 20 µM [2] of the same compound?
Its inhibition at 20 µM is 9.1 ± 6.3%.

And the inhibition at 0.8 µM ([3]; 0.8 μM)?
The inhibition at 0.8 µM was 3.8 ± 3.4%.

What about the inhibition at 4 µM ([3]; 4 μM) of the same compound?
Its inhibition at 4 µM is 1.7 ± 1.5%.

And the inhibition at 20 µM ([3]; 20 μM)?
The inhibition at 20 µM was 6.8 ± 1.8%.

And the inhibition at 0.8 µM ([4]; 0.8 μM)?
The inhibition at 0.8 µM was 4.9 ± 4.9%.

What about the inhibition at 4 µM ([4]; 4 μM) of the same compound?
Its inhibition at 4 µM is 50.8 ± 2.4%.

And the inhibition at 20 µM ([4]; 20 μM)?
Its inhibition at 20 µM is 74.9 ± 1.3%.

And the “percentage of NTS activity, 72 h” value ([5]; 10 μM)?
The value was 22.3 ± 2.0%.

What about the “percentage of NTS activity, 72 h” value ([5]; 20 μM) of the same compound?
The value was 23.5 ± 0.9%.

What about the IC50 ([5]; Schistosoma mansoni, 72 h, read-out: IC50, viability of NTS) of the same compound?
Its IC50 is > 20 µM.

And the CC50 at 96 h (in vitro)?
The CC50 at 96 h was 40 µM.

What does the source list for `Cc1[nH]c2ccccc2c1CCNCc1ccc(/C=C/C(=O)NO)cc1` [panobinostat]?
effect in Leishmania (Leishmania): ineffective and/or exhibited too high toxicity for macrophages; effects in schistosomula, adult worm pairs, and egg production [6]: only moderate effects

For `C/C=C1\NC(=O)[C@H]2CSSCC/C=C/[C@H](CC(=O)N[C@H](C(C)C)C(=O)N2)OC(=O)[C@H](C(C)C)NC1=O` [romidepsin], which “effect in Leishmania” value (Leishmania) is on record?
Its value is “ineffective and/or exhibited too high toxicity for macrophages”.

What about the “effects in schistosomula, adult worm pairs, and egg production” value (from here on “effects in schistosomula”) [6] of the same compound?
The value was “only moderate effects”.

For `O=C(/C=C/c1cccc(S(=O)(=O)Nc2ccccc2)c1)NO` [belinostat], which “effect in Leishmania” value (Leishmania) is on record?
The value was “ineffective and/or exhibited too high toxicity for macrophages”.

What about the “effects in schistosomula” value [6] of the same compound?
Its value is “only moderate effects”.

For `O=C(CCCCCCC(=O)Nc1ccccc1)NO` [SAHA], which “effect in Leishmania” value (Leishmania) is on record?
Its value is “ineffective and/or exhibited too high toxicity for macrophages”.

And the “effects in schistosomula” value [6]?
Its value is “only moderate effects”.
